Reference: PMC7999448, “Antibacterial and COX-2 Inhibitory Tetrahydrobisbenzylisoquinoline Alkaloids from the Philippine Medicinal Plant Phaeanthus ophthalmicus” (Plants, 2021)

Assays:
ovine COX-1 = molecular target: T1, ovine COX-1 (Ovis aries, UniProt P05979); test: colorimetric peroxidase assay, TMPD oxidation at […] nm (Cayman kit); format: biochemical
T1 construct: gene PTGS1
T1 sequence (P05979 25-600): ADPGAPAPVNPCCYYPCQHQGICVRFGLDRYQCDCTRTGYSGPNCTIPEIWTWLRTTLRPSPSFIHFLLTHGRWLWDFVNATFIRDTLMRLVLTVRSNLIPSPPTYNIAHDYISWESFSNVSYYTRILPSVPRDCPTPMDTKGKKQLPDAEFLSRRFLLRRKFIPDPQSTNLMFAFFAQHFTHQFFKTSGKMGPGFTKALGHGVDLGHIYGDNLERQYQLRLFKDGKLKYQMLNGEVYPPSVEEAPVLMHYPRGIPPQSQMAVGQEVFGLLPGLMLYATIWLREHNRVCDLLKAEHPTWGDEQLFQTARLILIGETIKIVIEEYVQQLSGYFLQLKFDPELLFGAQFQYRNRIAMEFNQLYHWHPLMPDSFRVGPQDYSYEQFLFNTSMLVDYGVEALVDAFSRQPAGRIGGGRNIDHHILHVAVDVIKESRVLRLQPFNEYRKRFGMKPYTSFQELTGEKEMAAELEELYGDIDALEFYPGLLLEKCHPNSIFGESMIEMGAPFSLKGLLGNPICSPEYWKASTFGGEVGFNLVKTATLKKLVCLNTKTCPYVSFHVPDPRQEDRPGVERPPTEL

ovine COX-2 = molecular target: T2, ovine COX-2 (Ovis aries, UniProt P79208); test: as above; format: biochemical; settings: read-out: IC50 (μM) vs. COX / COX-1
T2 construct: gene PTGS2
T2 sequence (P79208 17-603): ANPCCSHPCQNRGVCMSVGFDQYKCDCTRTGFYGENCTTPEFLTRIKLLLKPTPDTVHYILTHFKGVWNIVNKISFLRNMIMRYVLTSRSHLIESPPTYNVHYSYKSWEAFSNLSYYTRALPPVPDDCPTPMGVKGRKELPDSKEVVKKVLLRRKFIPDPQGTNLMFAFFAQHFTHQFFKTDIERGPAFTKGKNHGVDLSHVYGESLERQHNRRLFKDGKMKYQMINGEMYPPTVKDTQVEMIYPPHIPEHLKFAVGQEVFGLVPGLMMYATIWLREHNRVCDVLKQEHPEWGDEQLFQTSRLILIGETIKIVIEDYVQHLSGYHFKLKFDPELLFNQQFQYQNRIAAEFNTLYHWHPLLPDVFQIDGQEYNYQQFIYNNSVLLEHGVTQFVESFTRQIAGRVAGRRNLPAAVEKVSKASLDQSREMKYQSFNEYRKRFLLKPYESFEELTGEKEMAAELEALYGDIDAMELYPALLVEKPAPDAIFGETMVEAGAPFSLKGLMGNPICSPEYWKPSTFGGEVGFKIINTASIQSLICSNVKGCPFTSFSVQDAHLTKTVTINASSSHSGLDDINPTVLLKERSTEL

COc1ccc2cc1Oc1ccc(cc1)C[C@H]1c3cc(c(OC)cc3CCN1C)Oc1c(OC)c(OC)cc3c1[C@H](C2)N(C)CC3 [compound 1, (+)-tetrandrine]
IC50 (ovine COX-1): > 100 µM
IC50 (ovine COX-2): > 100 µM
